From paper PMC6891286, “Towards the Development of an In vivo Chemical Probe for Cyclin G Associated Kinase (GAK)” (Molecules, 2019)

Legend:
[1] = pharmacokinetic profiling in mice, oral dosing; assay type: in vivo; conditions: C57BL/6 mice, 10 mg/kg po
Protocol: Pharmacokinetic profiling was performed by SAI Life Sciences (Hyderabad, India). […] Prior approval of the Institutional Animal Ethics Committee (IAEC) was obtained before initiation of the study. Healthy male C57BL/6 mice (8–12 weeks old) weighing between 20 and 35 g were procured from (Envigo Research Private Ltd., City, Hyderabad, India). Three mice were housed in each cage. […] Temperature and humidity were recorded by an automatically controlled data logger system. All animals were provided a laboratory rodent diet (Envigo Research Private Ltd., Hyderabad, India). Reverse osmosis water treated with ultraviolet light was provided ad libitum. Eighteen male mice were weighed and divided in to two groups (Group 1 and Group 2), with nine mice in each group. […] The dosing volume administered was 10 mL/kg for the oral route. […] Plasma samples were separated by centrifugation at 4000 rpm for 10 min and stored below −70 °C until bioanalysis. […] The plasma concentration-time data were then used for the pharmacokinetic analysis. A non-compartmental analysis module in Phoenix WinNonlin (Version 6.3, Certara USA Inc., Raleigh, NC, USA) was used to assess the pharmacokinetic parameters. Maximum concentration (Cmax) and time to reach the maximum concentration (Tmax) were the observed values. The areas under the concentration time curve (AUClast and AUCinf) were calculated by linear trapezoidal rule.

[2] = target: T1, DCAMKL3 (Homo sapiens, UniProt Q9C098); assay: KINOMEscan; assay type: binding; conditions: 35 at 1 µM; read-out: % inhibition
T1 construct: purchased Eurofins DiscoverX (KINOMEscan)
Protocol: (§1) KinomeScan Assay on 35 was performed as previously described at EuroFins DiscoverX (Fremont, CA, USA).

[3] = target: T2, PRKD3 (Homo sapiens, UniProt O94806); assay: KINOMEscan; assay type: binding; conditions: 35 at 1 µM; read-out: % inhibition
T2 construct: purchased Eurofins DiscoverX (KINOMEscan)
Protocol: as §1

[4] = target: T3, DMPK2 (Homo sapiens, UniProt Q6DT37); assay: KINOMEscan; assay type: binding; conditions: 35 at 1 µM; read-out: % inhibition
T3 construct: purchased Eurofins DiscoverX (KINOMEscan)
Protocol: as §1

[5] = target: T4, KIT(L576P) (Homo sapiens, UniProt P10721, L576P); assay: KINOMEscan; assay type: binding; conditions: 35 at 1 µM; read-out: % inhibition
T4 construct: purchased Eurofins DiscoverX (KINOMEscan)
Protocol: as §1

[6] = target: T5, EGFR(L861Q) (Homo sapiens, UniProt P00533, L861Q); assay: KINOMEscan; assay type: binding; conditions: 35 at 1 µM; read-out: % inhibition
T5 construct: purchased Eurofins DiscoverX (KINOMEscan)
Protocol: as §1

[7] = target: T6, JNK3 (Homo sapiens, UniProt P53779); assay: KINOMEscan; assay type: binding; conditions: 35 at 1 µM; read-out: % inhibition
T6 construct: purchased Eurofins DiscoverX (KINOMEscan)
Protocol: as §1

[8] = target: T7, CAMK2D (Homo sapiens, UniProt Q13557); assay: KINOMEscan; assay type: binding; conditions: 35 at 1 µM; read-out: % inhibition
T7 construct: purchased Eurofins DiscoverX (KINOMEscan)
Protocol: as §1

[9] = target: T8, CDK5 (Homo sapiens, UniProt Q00535); assay: KINOMEscan; assay type: binding; conditions: 35 at 1 µM; read-out: % inhibition
T8 construct: purchased Eurofins DiscoverX (KINOMEscan)
Protocol: as §1

[10] = target: T9, PFTAIRE2 (Homo sapiens, UniProt Q96Q40); assay: KINOMEscan; assay type: binding; conditions: 35 at 1 µM; read-out: % inhibition
T9 construct: purchased Eurofins DiscoverX (KINOMEscan)
Protocol: as §1

[11] = target: T10, BTK (Homo sapiens, UniProt Q06187); assay: KINOMEscan; assay type: binding; conditions: 35 at 1 µM; read-out: % inhibition
T10 construct: purchased Eurofins DiscoverX (KINOMEscan)
Protocol: as §1

[12] = target: T11, PCTK3 (Homo sapiens, UniProt Q07002); assay: KINOMEscan; assay type: binding; conditions: 35 at 1 µM; read-out: % inhibition
T11 construct: purchased Eurofins DiscoverX (KINOMEscan)
Protocol: as §1

[13] = target: T12, RET(M918T) (Homo sapiens, UniProt P07949, M918T); assay: KINOMEscan; assay type: binding; conditions: 35 at 1 µM; read-out: % inhibition
T12 construct: purchased Eurofins DiscoverX (KINOMEscan)
Protocol: as §1

[14] = target: T13, ACVR2B (Homo sapiens, UniProt Q13705); assay: KINOMEscan; assay type: binding; conditions: 35 at 1 µM; read-out: % inhibition
T13 construct: purchased Eurofins DiscoverX (KINOMEscan)
Protocol: as §1

[15] = target: T14, TYK2(JH1domain-catalytic) (Homo sapiens, UniProt P29597); assay: KINOMEscan; assay type: binding; conditions: 35 at 1 µM; read-out: % inhibition
T14 construct: TYK2(JH1domain-catalytic); purchased Eurofins DiscoverX (KINOMEscan)
Protocol: as §1

[16] = target: T15, MAST1 (Homo sapiens, UniProt Q9Y2H9); assay: KINOMEscan; assay type: binding; conditions: 35 at 1 µM; read-out: % inhibition
T15 construct: purchased Eurofins DiscoverX (KINOMEscan)
Protocol: as §1

[17] = target: T16, GCN2(Kin.Dom.2,S808G) (Homo sapiens, UniProt Q9P2K8, S808G); assay: KINOMEscan; assay type: binding; conditions: 35 at 1 µM; read-out: % inhibition
T16 construct: GCN2(Kin.Dom.2,S808G); purchased Eurofins DiscoverX (KINOMEscan)
Protocol: as §1

[18] = target: T17, RET (Homo sapiens, UniProt P07949); assay: KINOMEscan; assay type: binding; conditions: 35 at 1 µM; read-out: % inhibition
T17 construct: purchased Eurofins DiscoverX (KINOMEscan)
Protocol: as §1

[19] = target: T18, LOK (Homo sapiens, UniProt O94804); assay: KINOMEscan; assay type: binding; conditions: 35 at 1 µM; read-out: % inhibition
T18 construct: purchased Eurofins DiscoverX (KINOMEscan)
Protocol: as §1

[20] = target: T19, TLK2 (Homo sapiens, UniProt Q86UE8); assay: KINOMEscan; assay type: binding; conditions: 35 at 1 µM; read-out: % inhibition
T19 construct: purchased Eurofins DiscoverX (KINOMEscan)
Protocol: as §1

[21] = target: T20, HASPIN (Homo sapiens, UniProt Q8TF76); assay: KINOMEscan; assay type: binding; conditions: 35 at 1 µM; read-out: % inhibition
T20 construct: purchased Eurofins DiscoverX (KINOMEscan)
Protocol: as §1

[22] = target: T21, EPHB4 (Homo sapiens, UniProt P54760); assay: KINOMEscan; assay type: binding; conditions: 35 at 1 µM; read-out: % inhibition
T21 construct: purchased Eurofins DiscoverX (KINOMEscan)
Protocol: as §1

[23] = target: T22, BMPR2 (Homo sapiens, UniProt Q13873); assay: KINOMEscan; assay type: binding; conditions: 35 at 1 µM; read-out: % inhibition
T22 construct: purchased Eurofins DiscoverX (KINOMEscan)
Protocol: as §1

[24] = target: T23, TRKC (Homo sapiens, UniProt Q16288); assay: KINOMEscan; assay type: binding; conditions: 35 at 1 µM; read-out: % inhibition
T23 construct: purchased Eurofins DiscoverX (KINOMEscan)
Protocol: as §1

[25] = target: T24, PIM2 (Homo sapiens, UniProt Q9P1W9); assay: KINOMEscan; assay type: binding; conditions: 35 at 1 µM; read-out: % inhibition
T24 construct: purchased Eurofins DiscoverX (KINOMEscan)
Protocol: as §1

[26] = target: T25, PRKCD (Homo sapiens, UniProt Q05655); assay: KINOMEscan; assay type: binding; conditions: 35 at 1 µM; read-out: % inhibition
T25 construct: purchased Eurofins DiscoverX (KINOMEscan)
Protocol: as §1

[27] = target: T26, MET(M1250T) (Homo sapiens, UniProt P08581, M1250T); assay: KINOMEscan; assay type: binding; conditions: 35 at 1 µM; read-out: % inhibition
T26 construct: purchased Eurofins DiscoverX (KINOMEscan)
Protocol: as §1

[28] = target: T27, QSK (Homo sapiens, UniProt Q9Y2K2); assay: KINOMEscan; assay type: binding; conditions: 35 at 1 µM; read-out: % inhibition
T27 construct: purchased Eurofins DiscoverX (KINOMEscan)
Protocol: as §1

[29] = target: T28, PIK3CA (Homo sapiens, UniProt P42336); assay: KINOMEscan; assay type: binding; conditions: 35 at 1 µM; read-out: % inhibition
T28 construct: purchased Eurofins DiscoverX (KINOMEscan)
Protocol: as §1

[30] = target: T29, DCAMKL2 (Homo sapiens, UniProt Q8N568); assay: KINOMEscan; assay type: binding; conditions: 35 at 1 µM; read-out: % inhibition
T29 construct: purchased Eurofins DiscoverX (KINOMEscan)
Protocol: as §1

[31] = target: T30, p38-gamma (Homo sapiens, UniProt P53778); assay: KINOMEscan; assay type: binding; conditions: 35 at 1 µM; read-out: % inhibition
T30 construct: purchased Eurofins DiscoverX (KINOMEscan)
Protocol: as §1

[32] = target: T31, p38-delta (Homo sapiens, UniProt O15264); assay: KINOMEscan; assay type: binding; conditions: 35 at 1 µM; read-out: % inhibition
T31 construct: purchased Eurofins DiscoverX (KINOMEscan)
Protocol: as §1

[33] = target: T32, TSSK3 (Homo sapiens, UniProt Q96PN8); assay: KINOMEscan; assay type: binding; conditions: 35 at 1 µM; read-out: % inhibition
T32 construct: purchased Eurofins DiscoverX (KINOMEscan)
Protocol: as §1

[34] = male, C57BL/6, mouse, plasma, po, 10 mg/kg, 2 h pretreat 50 mpk ABT
[35] = male, C57BL/6, mouse, plasma, po, 10 mg/kg, without ABT

T13 sequence (Q13705 19-512): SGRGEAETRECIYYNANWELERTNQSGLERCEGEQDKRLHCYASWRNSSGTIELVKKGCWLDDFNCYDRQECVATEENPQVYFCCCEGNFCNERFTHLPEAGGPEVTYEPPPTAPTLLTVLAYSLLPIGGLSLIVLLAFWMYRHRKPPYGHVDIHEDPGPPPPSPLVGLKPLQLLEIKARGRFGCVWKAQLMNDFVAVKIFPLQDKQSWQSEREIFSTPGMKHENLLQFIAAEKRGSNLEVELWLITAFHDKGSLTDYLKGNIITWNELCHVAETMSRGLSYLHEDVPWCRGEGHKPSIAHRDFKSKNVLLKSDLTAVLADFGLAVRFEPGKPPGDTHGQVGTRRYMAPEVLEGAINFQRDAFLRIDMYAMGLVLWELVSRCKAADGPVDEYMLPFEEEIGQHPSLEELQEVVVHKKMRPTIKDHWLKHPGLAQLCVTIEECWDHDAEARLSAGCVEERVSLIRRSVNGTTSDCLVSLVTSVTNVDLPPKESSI
T7 sequence (Q13557 whole entry): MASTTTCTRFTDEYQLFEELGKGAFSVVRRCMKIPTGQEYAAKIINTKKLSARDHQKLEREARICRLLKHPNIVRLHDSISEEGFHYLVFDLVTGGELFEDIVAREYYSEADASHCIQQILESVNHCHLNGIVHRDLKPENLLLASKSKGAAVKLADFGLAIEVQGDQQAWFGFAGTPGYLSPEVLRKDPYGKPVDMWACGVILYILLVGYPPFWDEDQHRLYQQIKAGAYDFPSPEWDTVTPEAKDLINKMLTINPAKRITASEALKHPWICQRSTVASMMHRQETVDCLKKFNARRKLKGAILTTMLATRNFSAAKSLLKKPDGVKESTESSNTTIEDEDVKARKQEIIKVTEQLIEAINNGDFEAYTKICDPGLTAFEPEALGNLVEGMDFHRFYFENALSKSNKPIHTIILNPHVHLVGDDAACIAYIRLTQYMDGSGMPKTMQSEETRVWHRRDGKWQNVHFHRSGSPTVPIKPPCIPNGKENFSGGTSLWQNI
T14 sequence (P29597 871-1187 limits assumed): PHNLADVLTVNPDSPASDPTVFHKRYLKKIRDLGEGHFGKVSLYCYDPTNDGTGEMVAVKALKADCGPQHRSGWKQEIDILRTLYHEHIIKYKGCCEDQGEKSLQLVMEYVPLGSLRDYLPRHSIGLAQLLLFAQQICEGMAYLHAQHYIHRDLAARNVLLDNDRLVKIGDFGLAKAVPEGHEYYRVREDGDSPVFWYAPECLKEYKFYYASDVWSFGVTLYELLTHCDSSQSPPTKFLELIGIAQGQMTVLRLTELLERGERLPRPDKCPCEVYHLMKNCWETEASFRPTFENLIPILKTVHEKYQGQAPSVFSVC
T18 sequence (O94804 whole entry): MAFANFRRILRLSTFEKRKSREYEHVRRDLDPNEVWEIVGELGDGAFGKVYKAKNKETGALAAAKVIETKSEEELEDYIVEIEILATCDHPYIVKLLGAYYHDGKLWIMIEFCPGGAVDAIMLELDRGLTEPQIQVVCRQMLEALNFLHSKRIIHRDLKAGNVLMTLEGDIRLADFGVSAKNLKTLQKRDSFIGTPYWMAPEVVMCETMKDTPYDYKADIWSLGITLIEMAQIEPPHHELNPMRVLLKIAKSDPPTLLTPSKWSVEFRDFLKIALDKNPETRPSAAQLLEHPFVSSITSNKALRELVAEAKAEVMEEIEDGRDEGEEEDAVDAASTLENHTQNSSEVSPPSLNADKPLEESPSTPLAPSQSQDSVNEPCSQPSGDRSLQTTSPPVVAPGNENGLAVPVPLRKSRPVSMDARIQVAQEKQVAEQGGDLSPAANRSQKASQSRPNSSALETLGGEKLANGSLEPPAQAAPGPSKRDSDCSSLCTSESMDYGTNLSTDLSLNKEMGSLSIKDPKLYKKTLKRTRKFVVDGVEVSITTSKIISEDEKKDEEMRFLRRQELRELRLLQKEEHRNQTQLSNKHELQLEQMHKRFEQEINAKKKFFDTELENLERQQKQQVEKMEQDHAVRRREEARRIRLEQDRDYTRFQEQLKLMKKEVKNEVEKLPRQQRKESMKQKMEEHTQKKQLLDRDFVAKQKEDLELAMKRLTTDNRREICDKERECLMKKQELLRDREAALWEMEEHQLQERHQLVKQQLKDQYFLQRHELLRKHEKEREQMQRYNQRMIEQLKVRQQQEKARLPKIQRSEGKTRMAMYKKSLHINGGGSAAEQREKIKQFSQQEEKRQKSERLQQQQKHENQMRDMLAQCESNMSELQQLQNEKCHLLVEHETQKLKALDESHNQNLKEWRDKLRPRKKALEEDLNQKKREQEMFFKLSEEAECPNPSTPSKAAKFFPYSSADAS
T20 sequence (Q8TF76 whole entry): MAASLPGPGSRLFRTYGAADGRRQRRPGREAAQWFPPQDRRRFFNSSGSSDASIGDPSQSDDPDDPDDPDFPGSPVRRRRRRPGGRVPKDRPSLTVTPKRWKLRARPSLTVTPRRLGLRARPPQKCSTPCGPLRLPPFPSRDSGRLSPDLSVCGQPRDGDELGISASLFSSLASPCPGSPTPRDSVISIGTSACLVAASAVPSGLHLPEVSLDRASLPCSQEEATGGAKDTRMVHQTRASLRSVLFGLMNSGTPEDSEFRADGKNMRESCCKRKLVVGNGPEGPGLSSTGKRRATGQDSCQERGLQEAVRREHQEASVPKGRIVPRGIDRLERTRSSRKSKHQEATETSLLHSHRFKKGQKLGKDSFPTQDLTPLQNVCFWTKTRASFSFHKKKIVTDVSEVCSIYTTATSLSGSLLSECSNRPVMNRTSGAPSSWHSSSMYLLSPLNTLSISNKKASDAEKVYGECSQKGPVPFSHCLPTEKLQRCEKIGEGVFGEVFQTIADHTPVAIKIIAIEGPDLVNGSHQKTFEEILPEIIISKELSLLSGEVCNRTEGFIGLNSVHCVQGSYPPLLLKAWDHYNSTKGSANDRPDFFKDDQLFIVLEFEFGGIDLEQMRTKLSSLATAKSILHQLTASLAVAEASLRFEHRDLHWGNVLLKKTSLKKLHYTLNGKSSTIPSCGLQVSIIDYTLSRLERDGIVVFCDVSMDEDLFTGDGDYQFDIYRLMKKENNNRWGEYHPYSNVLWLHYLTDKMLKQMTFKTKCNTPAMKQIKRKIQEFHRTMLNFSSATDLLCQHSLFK
T17 sequence (P07949 29-1114): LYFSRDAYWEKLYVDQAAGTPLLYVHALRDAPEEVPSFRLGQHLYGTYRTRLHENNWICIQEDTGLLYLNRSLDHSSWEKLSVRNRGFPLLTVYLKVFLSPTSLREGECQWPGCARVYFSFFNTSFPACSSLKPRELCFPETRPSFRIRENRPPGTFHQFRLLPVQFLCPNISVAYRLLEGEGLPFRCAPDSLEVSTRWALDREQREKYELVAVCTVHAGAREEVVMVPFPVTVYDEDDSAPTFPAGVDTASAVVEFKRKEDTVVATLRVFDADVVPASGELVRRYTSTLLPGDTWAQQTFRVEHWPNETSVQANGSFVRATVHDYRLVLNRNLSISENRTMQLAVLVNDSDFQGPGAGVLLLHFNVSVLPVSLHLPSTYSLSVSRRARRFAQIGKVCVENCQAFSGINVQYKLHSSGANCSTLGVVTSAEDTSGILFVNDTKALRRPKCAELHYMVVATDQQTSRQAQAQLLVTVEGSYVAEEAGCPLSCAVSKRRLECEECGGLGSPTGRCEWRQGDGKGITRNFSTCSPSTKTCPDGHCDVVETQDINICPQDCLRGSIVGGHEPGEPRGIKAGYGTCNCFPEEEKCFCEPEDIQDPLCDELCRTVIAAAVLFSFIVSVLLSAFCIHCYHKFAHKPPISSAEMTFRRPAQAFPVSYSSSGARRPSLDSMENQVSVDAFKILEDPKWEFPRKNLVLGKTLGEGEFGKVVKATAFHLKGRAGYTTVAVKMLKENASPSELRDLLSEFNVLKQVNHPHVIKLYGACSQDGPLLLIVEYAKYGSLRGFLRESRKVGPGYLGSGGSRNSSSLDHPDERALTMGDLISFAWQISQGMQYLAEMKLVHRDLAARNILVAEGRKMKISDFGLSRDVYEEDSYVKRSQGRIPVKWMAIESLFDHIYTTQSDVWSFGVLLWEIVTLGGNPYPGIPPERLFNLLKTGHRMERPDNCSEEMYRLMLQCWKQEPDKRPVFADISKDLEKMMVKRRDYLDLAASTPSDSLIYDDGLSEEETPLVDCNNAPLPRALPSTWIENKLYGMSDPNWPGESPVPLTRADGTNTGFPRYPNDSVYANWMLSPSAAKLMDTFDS
T24 sequence (Q9P1W9 whole entry): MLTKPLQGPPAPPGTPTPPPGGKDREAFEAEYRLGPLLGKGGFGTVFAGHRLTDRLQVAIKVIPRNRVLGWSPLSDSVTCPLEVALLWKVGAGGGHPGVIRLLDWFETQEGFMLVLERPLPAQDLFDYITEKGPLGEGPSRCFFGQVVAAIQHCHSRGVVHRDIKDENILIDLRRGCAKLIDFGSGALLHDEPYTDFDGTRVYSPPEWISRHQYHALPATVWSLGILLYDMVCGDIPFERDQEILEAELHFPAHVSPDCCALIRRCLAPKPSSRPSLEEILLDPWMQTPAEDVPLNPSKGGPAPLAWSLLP
T6 sequence (P53779 whole entry): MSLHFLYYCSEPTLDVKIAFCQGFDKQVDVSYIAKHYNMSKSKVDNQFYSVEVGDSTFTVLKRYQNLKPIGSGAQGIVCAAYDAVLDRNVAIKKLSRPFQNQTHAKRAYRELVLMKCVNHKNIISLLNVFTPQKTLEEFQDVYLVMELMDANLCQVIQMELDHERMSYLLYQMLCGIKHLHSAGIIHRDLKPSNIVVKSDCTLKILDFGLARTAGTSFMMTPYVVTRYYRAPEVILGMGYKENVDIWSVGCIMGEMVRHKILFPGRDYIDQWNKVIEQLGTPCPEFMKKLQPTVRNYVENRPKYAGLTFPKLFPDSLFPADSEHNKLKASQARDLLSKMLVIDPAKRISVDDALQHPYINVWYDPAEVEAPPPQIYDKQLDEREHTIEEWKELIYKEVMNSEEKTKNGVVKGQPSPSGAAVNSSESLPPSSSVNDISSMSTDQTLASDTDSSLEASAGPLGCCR
T12 sequence (P07949 29-1114 M918T): as the sequence (P07949 29-1114) above, with M890T counted along it

For `COc1cc2nccc(Nc3cc(OC)c(OC)c(OC)c3)c2cc1OC` [Compound 8], the “fold higher exposure with ABT pretreatment” value ([1]; 2 h pre-treatment with 50 mg/kg ABT vs without) was 8 fold, the “time plasma concentration sustained at 2-fold above the cellular IC50” value ([1]; pretreatment with ABT) was greater than 8 h and the AUC(0-inf) [1, 34] was 569 ng·h/mL. It also gave a Tmax [1, 34] of 2 h, a Cmax ([1]; male, C57BL/6, mouse, plasma, po, 10 mg/kg, 2 h pretreat 50 mpk ABT, read-out: Cmax) of 107 ng/mL and an AUC(0-inf) [1, 35] of 71 ng·h/mL. It also gave a Tmax [1, 35] of 1 h and a half-life ([1]; male, mouse, plasma, without ABT, read-out: T1/2 in mice) of less than 1 h.
`Brc1ccc2nccc(Nc3ccc4cn[nH]c4c3)c2c1` [Compound 35, 6-Bromo-N-(1H-indazol-6-yl)quinolin-4-amine] showed an activity at 1 µM [2] of 99%, an activity at 1 µM [3] of 100% and an activity at 1 µM [4] of 73%. The activity at 1 µM [5] was 100%, the activity at 1 µM [6] was 100% and the activity at 1 µM [7] was 100%. It also gave an activity at 1 µM [8] of 100%, an activity at 1 µM [9] of 100% and an activity at 1 µM [10] of 100%. For the same molecule, the activity at 1 µM [11] was 100%, the activity at 1 µM [12] was 100% and the activity at 1 µM [13] was 100%. It also gave an activity at 1 µM [14] of 36%, an activity at 1 µM [15] of 100% and an activity at 1 µM [16] of 100%. For the same molecule, the activity at 1 µM [17] was 59%, the activity at 1 µM [18] was 100% and the activity at 1 µM [19] was 100%. For the same molecule, the activity at 1 µM [20] was 100%, the activity at 1 µM [21] was 79% and the activity at 1 µM [22] was 100%. The activity at 1 µM [23] was 100%, the activity at 1 µM [24] was 82% and the activity at 1 µM [25] was 100%. It also gave an activity at 1 µM [26] of 100%, an activity at 1 µM [27] of 100% and an activity at 1 µM [28] of 100%. It also gave an activity at 1 µM [29] of 100%, an activity at 1 µM [30] of 100% and an activity at 1 µM [31] of 94%. For the same molecule, the activity at 1 µM [32] was 100% and the activity at 1 µM [33] was 77%.
